Test results from paper PMC7551886, “Antitumour Effects of Astaxanthin and Adonixanthin on Glioblastoma” (Marine Drugs, 2020).

Tests used:
GL261 cells = assay: Wound healing (cell migration) assay in GL261; format: cell-based, mouse; details: GL261, 10 µM, 48 h
Description: The cell migration assay was conducted as previously described. GL261 cells and U251 cells (2.0 × 10^4 cells per well) were plated in a 12-well plate (BD Biosciences, Tokyo, Japan) with culture medium supplemented with 10% FBS. After 24 h of incubation, the medium was changed to DMEM containing 1% FBS. After 6 h, wounds were scratched by a P1000 pipette tip and washed with phosphate-buffered saline (PBS) to eliminate cell debris. Then, fresh medium was added with 10 µM astaxanthin or adonixanthin. Pictures were taken at 48 h and these scratched areas were measured using an All-in-One Fluorescence Microscope (BZ-X710; Keyence, Osaka, Japan). The cell migration rate was measured the area of the wound before migration (S0) and after migration (S1) and calculated […]. The control group was then standardized to be 100%. Wound widths at 0 h were created within 1 to 1.5 mm and data were excluded if they were not suitable for that width.

Akt = assay: Immunoblotting, phosphorylation of Akt in GL261; format: cell-based, mouse; details: GL261, 10 µM, 6 h post-treatment
Description: (§1) GL261 cell was seeded at 2.5 × 10^4 cells per well in 24-well plates with culture medium supplemented with 10% FBS. After 24 h of incubation, the medium was changed to DMEM containing 10% FBS and 0.1%DMSO PBS, 300 μM temozolomide, 10 μM astaxanthin, or 10 μM adonixanthin was added for 6 and 48 h. Cells were lysed in a special buffer (RIPA buffer R0278; Sigma-Aldrich, St. Louis, MO, USA) with a protease inhibitor cocktail (Sigma-Aldrich), phosphatase inhibitor cocktails 2 and 3 (Sigma-Aldrich), and sample buffer (Wako, Osaka, Japan). The protein concentration was determined by comparison with a known concentration of bovine serum albumin using the BCA Protein Assay Kit (Thermo Fisher Scientific). The amount of total protein was 2 μg. […] The band intensity was […] using an Immuno Star LD (Wako). Band intensity was measured using an LAS-4000 UV mini Luminescent Image Analyzer (Fujifilm, Tokyo Japan) and Multi Gauge Version 3.0 (Fujifilm). The phosphorylation of ERK1/2, Akt, and p38 MAPK was measured by normalizing against total ERK1/2, total Akt, and total p38 MAPK. […]

Bcl-2 = assay: Immunoblotting, Bcl-2 expression in GL261; format: cell-based, mouse; details: GL261, 10 µM, 48 h
Description: as §1, with “μg. Equal amounts of protein in sample buffer containing 10% 2-mercaptoethanol were subjected to sodium dodecyl sulphate polyacrylamide gel electrophoresis (SDS-PAGE) in 5-20% gradient gels (SuperSep Ace; Wako), and the separated proteins were transferred to polyvinylidene difluoride membrane (Immobilon-P; Merck Millipore Corporation, Bedford, MA, USA). After blocking for 30 min with Blocking One-P (Nacalai Tesque), we incubated the membranes with primary antibodies overnight at 4 °C.” for “μg.”

[1] = test system: intracellular ROS in GL261 cells; assay: Reactive oxygen species assay (CM-H2DCFDA); format: cell-based, mouse; details: GL261, 1 and 10 µM, 6 h
Description: Intracellular radical activation within GL261 cells was measured with 5-(and-6)-chloromethyl—2′,7′-dichlorodihydrofluorescein diacetate, acetyl ester (CM-H2DCFDA; Thermo Fisher Scientific, MA, USA). Six hours after treatment of temozolomide, astaxanthin, or adonixanthin, CM-H2DCFDA was added to the culture medium and incubated at 37 °C for 1 h under shading in GL261. Fluorescence was measured using a Varioscan Flash 2.4 microplate reader (Thermo Fisher Scientific, MA, USA) at 485 (excitation)-535 nm (emission). Measurements were performed 0, 30, and 60 min after the addition of CM-H2DCFDA.

[2] = ICR, mouse, in vivo, po
Description: In the experiment of the murine orthotopic glioblastoma model, oral administration of each astaxanthin (10 and 30 mg/kg) and adonixanthin (10 and 30 mg/kg) was initiated 3 days after intracranial injection of GL261 cells and was continued for 10 days. In the experiment of the brain tissue absorption with oral astaxanthin or adonixanthin, after one week of adaptation, ICR mice were randomly divided into the following three groups: control group, astaxanthin group (50 mg/kg), and adonixanthin group (50 mg/kg). Mice were orally administered each reagent suspended in olive oil (5 mL/kg) by the daily single dose for 10 days. The control group was treated by olive oil alone (5 mL/kg).
In mice, blood samples were collected under anaesthesia by using sodium pentobarbital (50 mg/kg, 10 mL/kg, i.p). To separate serum and from blood, we centrifuged at 1700 g for 10 min. […]
Carotenoid fraction was collected from blood and some tissues by silica gel HPLC using a Cosmosil 5SL-II column with acetone:hexane (2:8, v/v) for the mobile phase at a flow rate of 1.0 mL/min as described above. […] Identification of each carotenoid was performed by authentic carotenoids obtained from Paracoccus (ENEOS Corporation, Tokyo, Japan) by our routine methods and the content of each carotenoid was calculated from peak areas by comparison with the authentic samples.

| SMILES | suppression of cell migration (GL261 cells) | phosphorylation of Akt (Akt) | expression of Bcl-2 vs. control (Bcl-2) | amount of intracellular ROS [1] | concentration detected in the brain [2] |
| --- | --- | --- | --- | --- | --- |
| CC1=C(/C=C/C(C)=C/C=C/C(C)=C/C=C/C=C(C)/C=C/C=C(C)/C=C/C2=C(C)C(=O)[C@@H](O)CC2(C)C)C(C)(C)C[C@H](O)C1 [Adonixanthin, adonixanthin] | 13.74 ± 4.01% | decreased | N.S. | decreased | ~10 nM |
| CC1=C(/C=C/C(C)=C/C=C/C(C)=C/C=C/C=C(C)/C=C/C=C(C)/C=C/C2=C(C)C(=O)[C@@H](O)CC2(C)C)C(C)(C)C[C@H](O)C1=O [Astaxanthin, astaxanthin] | 8.84 ± 2.09% | decreased | N.S. | decreased | approximately 30 nM |
